One compound from patent US20050148534A1, “Small molecule compositions and methods for increasing drug efficiency using compositions thereof” (priority 2003, published 2005) can be followed below.

Where two headings read alike, the source gives them in different places.

The target of data set [1] is T1, Human thymidine kinase 1 (TK1) (Homo sapiens, UniProt P04183).
T1 construct: His tag (from pET28b(+)) (N); made in house; host or cells: E. coli BL21-codon plus
T1 sequence (P04183 1-234): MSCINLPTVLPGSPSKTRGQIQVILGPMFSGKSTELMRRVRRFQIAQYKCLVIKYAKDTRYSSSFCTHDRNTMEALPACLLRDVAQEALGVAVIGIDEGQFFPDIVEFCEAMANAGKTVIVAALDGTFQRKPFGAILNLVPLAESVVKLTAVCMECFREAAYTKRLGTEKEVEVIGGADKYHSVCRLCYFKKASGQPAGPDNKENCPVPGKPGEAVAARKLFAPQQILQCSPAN
Put plainly: Thymidine kinase coupled (kinetic) ATP depletion assay. The class given is biochemical. Conditions: initial velocity relative to thymidine; 100 μM conjugate.

In a further data set the test system is tubulin. Put plainly: Fluorescence-based microtubule polymerization assay (MPA). The class given is biochemical. Particulars: mean percentage of paclitaxel or vinblastine activity; 0.75-10 micromolar. An outline of the steps:
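Tubulin polymerization was followed by fluorescence (ex 360/em 405 nm) in a commercial kit with 1 mg/ml BSA added to every assay, glycerol being omitted for paclitaxel conjugates. Parent drugs and conjugates were tested at 0.75, 1.5, 3 and 10 micromolar final. Curves from the linear range of the dose responses were compared.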

The test system of data set [2] is MCF-7 breast carcinoma. Put plainly: Cytotoxicity assay (monolayer), MCF-7. The class given is cell-based. Conditions: Homo sapiens, MCF7. How it is done:
(§1) Statistical Assoc., 81, 991-999, 1986.
(§2) Monolayer assays with tumor cell lines (MCF-7 breast carcinoma and HT-29 colorectal carcinoma from ATCC) were carried out in triplicate in 96-well plates with RPMI1640 medium containing 5% fetal bovine serum, 100 U/ml penicillin and 100 μg/ml streptomycin. Normal human foreskin fibroblasts (HFF #CC-2509) were from Cambrex and were cultured in FGM-2 medium. Exponentially growing cells (5,000 MCF-7 or HT-29; 1,500 HFF) were plated in 100 μl medium and incubated overnight (5% CO2, 37° C.). Compounds (20 pM to 20 μM final concentration, 6-8 doses) and vehicle (DMSO) controls were added and the incubation was continued for an additional 72 hours. Final cell density was determined by incubating cultures with 25 μl AlamarBlue reagent (BioSource, Camarillo, Calif.) for 4 hours, followed by determination of fluorescence at excitation of 544 nm and emission of 590 nm with a SpectroMax Gemini EM fluorescence plate reader (Molecular Devices, Sunnyvale, Calif.). EC50 values were generated from dose-response curves by a 4-parameter method using Softmax PRO software. Mean EC50s (±SD) represent the average of all tests carried out for all lots of a given compound. […] Statistical Assoc., 81, 991-999 (1986).

Data set [3] relates to HT-29 colorectal carcinoma. The experiment in a line: Cytotoxicity assay (monolayer), HT-29. It is filed as cell-based. Particulars: Homo sapiens. How it is done:
as §1, §2

Data set [4] deals with Normal human foreskin fibroblasts (HFF). Put plainly: Cytotoxicity assay (monolayer), HFF. It is filed as cell-based. Conditions: Fibroblast. How it is done:
as §1, §2

Another data set relates to MCF7. Put plainly: Cytotoxicity assay, MCF7 SSA (SSA not explained). The class given is cell-based. Conditions: Homo sapiens.
For another data set, the system named is HT29. Put plainly: Cytotoxicity assay, HT29 SSA (SSA not explained). It is filed as cell-based. Conditions: Homo sapiens, HT-29; read-out: HT29 (EC50 Ave) SSA.
In data set [5] the test system is breast carcinoma, colon carcinoma and leukemia. Put plainly: Cytotoxicity of drug-thymidine conjugates (Example 22). It is filed as cell-based.
A short description of data set [6]: Cytotoxicity assay (soft agar), MCF-7. Particulars: human.
The test system of data set [7] is MCF-7 breast carcinoma. Put plainly: Cytotoxicity assay (soft agar), MCF-7. Particulars: Homo sapiens.
The nature of data set [8]: Cytotoxicity assay (soft agar), HT-29. Conditions: human.
Data set [9] deals with HT-29 colorectal carcinoma. Put plainly: Cytotoxicity assay (soft agar), HT-29. Particulars: Homo sapiens.

Take `CC(=O)O[C@H]1C(=O)[C@@]2(C)[C@H]([C@H](OC(=O)c3ccccc3)[C@]3(O)C[C@H](OC(=O)[C@H](O)[C@@H](NC(=O)c4ccccc4)c4ccccc4)C(C)=C1C3(C)C)[C@]1(OC(C)=O)CO[C@@H]1C[C@@H]2O` [Paclitaxel]: the “Ave. TK1 Kinase Act.” value in [1] is “A (A<20)”. For the same compound, in the data set on tubulin, the “Ave. MPA Act” value is “C (C>100)”. Also, the EC50 (usually the concentration giving half of the maximal effect) was 5 ± 2 nM in the data set with MCF-7 breast carcinoma [2] (mean ± SD, read-out: MCF-7 Monolayer EC50); less than 100 nM in the data set on MCF-7 breast carcinoma [2] (monolayer, 72 hours, AlamarBlue, read-out: MCF7 (EC50 Ave) ML); 5 ± 3 nM in [3] (mean ± SD, read-out: HT-29 Monolayer EC50); less than 100 nM in [3] (monolayer, 72 hours, AlamarBlue, read-out: HT29 (EC50 Ave) ML); 9 ± 5 nM in [4] (mean ± SD, read-out: HFF Monolayer EC50); less than 100 nM in data set [4] (monolayer, 72 hours, AlamarBlue, read-out: HFF (EC50 Ave) ML). Also, the EC50 in the data set with MCF7 is less than 100 nM; with HT29, less than 100 nM; in [5], 5 to 8 nM; in the data set on MCF-7 breast carcinoma [7] (MCF7, read-out: MCF7 (EC50 Ave) SA) it was less than 100 nM; in the data set with MCF-7 breast carcinoma [7] (MCF7, read-out: MCF-7 Soft Agar EC50) it was 6 ± 3 nM; in [9] (HT-29, read-out: HT29 (EC50 Ave) SA), less than 100 nM. Further, the concentration giving a half-maximal response (EC50) in data set [9] (HT-29, read-out: HT-29 Soft Agar EC50) amounted to 15 ± 2 nM. The selectivity ratio in data set [6] stood at 1.4; in [8], 0.6.
